Entries after “also recorded” stand apart in the source; their conditions may differ.
Experiments:
[1] = test system: pZscan4-Emerald ESCs; experiment: FACS analysis of Zscan4-Emerald ESCs (Emerald-GFP positive cells); type: cell-based, mouse; details: for elevated expression of 2C-like specific genes (Zscan4, MERVL) upon APH and HU treatment: inhibitor added under replication stress, flow cytometry and immunoblot
Procedure: All treatments including APH, HU, UV, ATRi, ATMi and Chk1i were added in to fresh ESC medium and the cells were kept in 37° C. and 3% 02 tension for overnight (16-17 hrs) unless mentioned in each particular result section. APH was used at various concentrations ranging from 0.3 uM to 6 uM that is mentioned in each experiment in order to induce mild to acute replication stress response. Similarly, HU was used at 0.1 mM-3 mM. ATMi (KU-55933) and ATRi (VE 822) were used at the concentration of 10 uM and 1 uM respectively. Moreover, Chk1i (UCN-01) at the concentration of 100 nM was used. UV radiation was performed at the dosage ranging from 2 to 10 J/m2. For induction of ETAA1-AAD expression, Dox was used at the concentration of 1 μg/mL for 48 hrs.
ESCs were fixed and permeabilized using Cytoperm/Cytofix kit (BD Biosciences), and subsequently stained for one hour at room temperature with Alexa Fluor® 647 anti-H2AX-Phosphorylated (Ser139) antibody (Biolegend) or P-CHK1-PE conjugated antibody (cell signaling 12268). Cells were washed and acquired on a FACS Calibur instrument or Attune NxT (Thermo Fisher Scientific). For Emerald-GFP acquisition, cells were trypsinized, collected and subsequently acquired without fixation. Cell cycle profiles were acquired after incubation with DAPI (4′,6-diamidino-2-phenylindole) overnight. For Caspase3 FACS analysis after fixation and permeabilization, Cleaved Caspase3 antibody were used for one hr at RT followed by washes and one hr incubation in donkey anti rabbit secondary antibody. […]

[2] = test system: E14 mouse ESCs; experiment: Drop-seq single cell transcriptional profiling of E14 ESCs; type: cell-based
Procedure: ESCs from CNTL, APH (6 μM) and APH-ATRi experimental conditions were resuspended in PBS-BSA and processed with a microfluidic device according to the DropSeq Laboratory Protocol V3.1 from McCarroll's Lab website [http://mccarrolllab.com/dropseq/l]. For each condition, 3 distinct aliquots of collected emulsion, each containing 4000 beads underwent reverse transcription (RT) and fragment library preparation using Illumina Nextera XT Library Prep Kit. A distinct barcode was used for each library to allow subsequent demultiplexing of sequencing reads. mRNA sequencing was performed using an Illumina HiSeq2000 instrument, library fragments were sequenced at 50 base pairs (bp) in PE mode. Sequencing reads were aligned to UCSC Mouse Reference Genome version mm10 using STAR (version 2.5.3a), and processed according to DropSeq Alignment Cookbook V1.2 to generate a digital expression matrix of STAMPs (cells) for each experimental condition, which was then furtherly analyzed in the RStudio environment (R version 3.3.3) using Seurat package V2.0 from Satija Lab [http://satijalab.org/seurat/]. Seven-hundred most expressed cells were selected in each condition; genes expressed in less than 3 cells and cells expressing less than 200 genes were pruned from the dataset. Data from CNTL and APH conditions (1399 cells) or CNTL, APH and APH-ATRi conditions (2096 cells) were merged to generate two datasets, which were log normalised and scaled. Expression mean and variance to mean ratio (Log VMR>0.5) were used to estimate data dispersion and select variable genes across the dataset. Respectively 2614 and 2768 genes (in the 2-conditions and 3-conditions datasets) were used in principal component analysis (PCA) to identify the appropriate number of components to include in data modeling. Top 15 components were selected to explain dataset complexity. A shared nearest neighbor (SNN) graph and smart local moving algorithm was used to perform cells clustering; t-SNE (t-stochastic neighbour embedding) analysis was used to reduce (PCA) dimensionality and generate plots of cells distribution.

[3] = test system: morula-stage embryos; experiment: Mouse chimaera assay; type: in vivo; details: APH-treated mCherry ESCs injected into morula, 24 hrs post injection; 7 out of 35
Procedure: Briefly, morula stage embryos were bought from Charles River laboratories. They were thawed few hours prior to injection and about five to eight ESC were injected into the perivitelline space of high quality morula-stage embryos using laser-assisted technique and glass micro-capillary tubes. Finally, embryos were cultured for 24 hours at 37 C, 5% CO2 to allow the blastocysts development prior to the microscopic analysis.
For ETAA-1 inducible cells, 8-cell morulae were obtained from superovulated C57BL/6 prepubescent females from Janvier Labs. Ten ESCs were injected into each morula after piercing their zona pellucida with beveled microinjection needle. Embryos were kept in M2 medium during the injection and afterwards in KSOM medium at 37° C. under 5% CO2. Morulae were either cultured for 48 hrs to study ESC contribution at late blastocyst stage (E4.5), or transferred to pseudopregnant females and later dissected at E7.5. Chimerism and ESC contribution to the various embryonic layers were assessed by emission of mCherry fluorescence signal.
For the APH-treated ESCs, frozen morula-stage embryos were purchased from Charles River and Janvier laboratories. Embryos were thawed 2 hrs prior to injection and 4 to 8 ESCs were transferred into the perivitelline space by laser-assisted microinjection method. […]

Compound	elevated expression of 2C-like specific genes (Zscan4, MERVL) upon APH and HU treatment [1]	elevated expression of 2C-like specific genes (Zscan4, MERVL) upon APH and HU treatment ([1]; listed as ATR inhibitor)	number of Zscan4-Emerald positive cells ([1]; normal culture condition, ATRi 1 uM, ATMi 10 uM)	number of APH-induced 2C-like gene expressing cells (Zscan4d+, Gm8300+) ([2]; APH plus ATRi)	number of RS-induced cells in the newly emerging cluster ([2]; APH plus ATRi)	number of Emerald-GFP positive (Em+) ESCs ([1]; RS inducing agents, dose-dependent, qPCR and FACS)	small cell population (cluster 4, 2C-like) in single cell profiling ([2]; E14 ESCs in LIF plus 2i, APH 6 μM)	chimeric embryos with contribution to the trophectoderm layer of the blastocysts [3] [%]
CNCc1ccc(-c2cc(-c3nc(-c4ccc(S(=O)(=O)C(C)C)cc4)cnc3N)on2)cc1 [VE 822]	robustly revert	robustly suppress	markedly reduce; also recorded: marked reduction	marked reduction	significantly reduced	–	–	–
C[C@@]1(CO)[C@H](O)CC[C@@]2(C)[C@H]1CC[C@H]1C[C@@H]3C[C@@]12CC[C@]3(O)CO [APH, aphidicolin]	–	–	–	–	–	significant increase	significantly increased	20

From patent publication US20200131473A1, “METHOD OF GENERATING 2 CELL-LIKE STEM CELLS” (IFOM FONDAZIONE ISTITUTO FIRC DI ONCOLOGIA MOLECOLARE, priority 2017, published 2020)
